Key:
[1] = system: MRC-5LD (noncancerous human lung fibroblasts doxorubicin-resistant); experiment: Cytotoxic MTS assay, MRC-5LD; assay type: cell-based
Method in brief: (§1)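 Growth inhibition over 72 h at 37 °C was quantified with MTS reagent (OD 490 nm), using four-fold compound dilutions added at seeding; the 50% inhibitory concentration was reported.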

[2] = system: HCT116 (colorectal carcinoma); experiment: Cytotoxic MTS assay, HCT116; assay type: cell-based, human
Method in brief: as §1

[3] = system: CEM-DNR bulk (daunorubicin-resistant subline of CCRF-CEM cells); experiment: Cytotoxic MTS assay, CEM-DNR; assay type: cell-based, human
Method in brief: as §1

[4] = system: CCRF-CEM (childhood T cell acute lymphoblastic leukemia); experiment: Cytotoxic MTS assay, CCRF-CEM; assay type: cell-based, human
Method in brief: as §1

CCRF-CEM lymphoblasts = experiment: BrU incorporation analysis (RNA synthesis); assay type: cell-based, human; settings: 24 h
Protocol: The effect of compounds on cell cycle distribution was determined to gain insights into the mechanism of its antiproliferative activity. […] For example, as compared with control, the percentage of cells in G2/M phases was increased by treatment with 5 × IC50 μM of compounds for 24 h (Table 4). […] As shown in (Table 4), there was a marked increase in the sub-G1 from 2.91 in untreated cells. 5-Bromo-2-deoxyuridine (BrDU) is incorporated into newly synthesized DNA, and 5-bromouridine (BrU) pulse labeling is therefore commonly used as a proliferation marker. Low BrDU and BrU incorporation into the DNA or RNA, respectively, of treated cells with all compounds at 5 × IC50 reflected inhibition of DNA and RNA synthesis, indicating irreversible apoptotic changes. The percentage of […] cells incorporating 5-bromouridine is proportional to the transcriptional activity of CCRF-CEM cells. Cells were cultured and treated as described above. Before harvesting, pulse-labeling with 1 mM BrU for 30 min followed. The cells were then fixed in 1% buffered paraformaldehyde with 0.05% NP-40 at rt for 15 min, and then stored at 4 °C overnight. Before measurement, they were washed with 1% glycine in PBS, washed with PBS again and stained with primary anti-BrDU antibody cross-reacting to BrU (Exbio) for 30 min at rt in the dark. From this point, the experiment was performed exactly as in the previous method.

[5] = 5 × IC50 (second value of cell)

Structure (SMILES) | IC50 [1] [µM] | IC50 [2] [µM] | IC50 [3] [µM] | IC50 [4] [µM] | RNA Synthesis (% positive of cells) (CCRF-CEM lymphoblasts; 1 × IC50 (first value of cell)) [%] | RNA Synthesis (% positive of cells) (CCRF-CEM lymphoblasts; [5]) [%]
COc1ccc(OC)c(C(=O)OCCS(=O)(=O)c2cc[n+]([O-])c3cc(Cl)ccc23)c1 [Compound 65, 2-[(N-Oxide 7-chloroquinolin-4-yl)sulfonyl]ethyl-2,5-dimethoxybenzoate] | 2.02 | 8.83 | 8.97 | 0.55 | 36.04 | 24.95
COc1cc(OC)c(C(=O)OCCS(=O)(=O)c2cc[n+]([O-])c3cc(Cl)ccc23)cc1OC [Compound 66, 2-[(N-Oxide 7-chloroquinolin-4-yl)sulfonyl]ethyl-2,4,5-trimethoxybenzoate] | 2.3 | 9.22 | 8.03 | 1.11 | 29.44 | 3.05
Cc1ccc([N+](=O)[O-])c(C(=O)OCCS(=O)(=O)c2cc[n+]([O-])c3cc(Cl)ccc23)c1 [Compound 70, 2-[(N-Oxide 7-chloroquinolin-4-yl)sulfonyl]ethyl-5-methyl-2-nitrobenzoate] | 6.47 | 11.5 | 17.4 | 1.16 | 35.28 | 2.88
COc1ccccc1C(=O)OCCS(=O)(=O)c1cc[n+]([O-])c2cc(Cl)ccc12 [Compound 68, 2-[(N-Oxide 7-chloroquinolin-4-yl)sulfonyl]ethyl-2-methoxybenzoate] | 4.17 | 5.25 | 12.2 | 1.23 | 37.4 | 3.8
COc1ccc(C(=O)OCCS(=O)(=O)c2cc[n+]([O-])c3cc(Cl)ccc23)cc1 [Compound 63, 2-[(N-Oxide 7-chloroquinolin-4-yl)sulfonyl]ethyl-4-methoxybenzoate] | 2.91 | 16.2 | 8.74 | 0.77 | 35.01 | 2.79
O=C(OCCS(=O)(=O)c1cc[n+]([O-])c2cc(Cl)ccc12)c1ccc(C(F)(F)F)cc1 [Compound 72, 2-[(N-Oxide 7-chloroquinolin-4-yl)sulfonyl]ethyl-4-(trifluoromethyl)benzoate] | 13.9 | 17.3 | 25.2 | 2.14 | 21.64 | 2.19
COc1ccc(C(=O)OCCS(=O)(=O)c2cc[n+]([O-])c3cc(Cl)ccc23)cc1[N+](=O)[O-] [Compound 69, 2-[(N-Oxide 7-chloroquinolin-4-yl)sulfonyl]ethyl-4-methoxy-3-nitrobenzoate] | 2.74 | 13.1 | 19.1 | 1.38 | 31.54 | 2.64
